Test results as given in US8557820B2, “Crystal modifications of transmission dyes” (BASF SE, priority 2007, dated 2013).

Test: Thermodynamic / phase stability of the crystal modification at 25° C.
Type: physicochemical
Procedure: This modification is therefore suitable in dispersions comprising micro-fine particles.
Advantageously, dispersions comprising this specific crystal modification are not subjected to phase transformations resulting in a crystal growth.
5 g of the compound obtained in Example A2 (modification (B)) and 5 g of the compound of formula (1) obtained in Example A1 are elutriated in 50 g N-methylpyrrolidone at 25° C.
The suspension is stirred for 3 days at 25° C.

- thermodynamic stability of the crystal modification: thermodynamically stable
SMILES: CCN(CC)c1ccc(C(=O)c2ccccc2C(=O)N2CCN(C(=O)c3ccccc3C(=O)c3ccc(N(CC)CC)cc3O)CC2)c(O)c1 [crystal modification (C)]
